What was measured:
[1] = Dynamic light scattering (DLS) solubility assay; assay type: physicochemical; settings: normalized intensity ratio of 25 μM compound vs DMSO, in PBS
Description: Dynamic light scattering (DLS) (see Table 1, column 3) is a tool for studying the diffusion behavior of macromolecules in solution. To profile compound solubility, DLS assay was developed for measuring aggregation of small molecule compounds. Compound stock solution was prepared in DMSO. Dilution series were made for each compound in DMSO to ensure a final 1× assay concentration range of 200 μM to 0.78 μM. For example, if the final DMSO concentration was 1%, compounds were prepared at 100× concentrations ranging from […] to 78 μM. Dilute compounds in PBS solution to final concentration. Place 60 μl/well in 96 well plates and 3 replicates for each sample. Data were collected using a DynaPro Plate Reader III (WYATT Technologies, Inc., USA). The instrument was adjusted to measure the optimal light scattering intensity according to the manufacturer's instructions. […] The ratio over 2 means (−) insoluble. The ratio below 2 means (+) soluble and around 2 means (+/−).

[2] = biological target: CUL4A-DDB1-BPB interaction (Homo sapiens (Human), UniProt Q16531); assay: AlphaLISA in vitro binding assay, CUL4A and DDB1-BPB binding; settings: inhibition of CUL4A and DDB1-BPB binding
CUL4A-DDB1-BPB interaction, sequence (Q16531 403-706): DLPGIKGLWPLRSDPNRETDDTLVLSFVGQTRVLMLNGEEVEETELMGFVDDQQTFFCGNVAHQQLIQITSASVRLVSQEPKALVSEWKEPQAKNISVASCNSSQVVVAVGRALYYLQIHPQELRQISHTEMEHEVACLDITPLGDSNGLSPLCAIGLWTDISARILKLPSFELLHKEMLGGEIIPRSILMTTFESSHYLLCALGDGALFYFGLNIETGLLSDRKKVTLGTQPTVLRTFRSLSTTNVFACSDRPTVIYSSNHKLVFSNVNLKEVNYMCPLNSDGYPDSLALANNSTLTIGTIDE
From the text: AlphaLISA IC50 (see Table 1, column 4) means the half maximal inhibitory concentration of compound that inhibits CUL4A and DDB1-BPB binding. Our lab established and optimized 384 well-based AlphaLISA in vitro binding assay for testing small molecule inhibitory activity. Small molecule libraries were screened for compounds that disrupt CUL4A-DDB1-BPB interaction using AlphaScreen detection beads (PerkinElmer, #AL112C and #6765300) following the manufacturer's protocol (https://www.perkinelmer.com/PDFs/downloads/GDE-Alphatech.pdf, hereby incorporated by reference in its entirety for all purposes). The 384-well assay plates (Greiner Bio-one, #781075) were read in Synergy Neo2 Hybrid Multi-Mode Reader (BioTek). The IC50 was calculated by Prism 8 XY analysis nonlinear regression (curve fit-Log(inhibitor) vs response).

[3] = tested on: UV-induced CUL4-dependent DDB2 degradation in MEF-F-DDB2 cells; assay: Cell-based assay for inhibition of UV-induced CUL4-dependent DDB2 degradation; parameters: key: (+) means that the normalized DDB2/α-tubulin ratio is higher in the compound treated sample than DMSO treated sample; (−) means that no change happens between compound treated sample with control sample; settings: DDB2/α-tubulin by Western blot
Description: Cell-based assay for inhibition of UV-induced CUL4-dependent DDB2 degradation by small molecule CUL4 inhibitors (see Table 1, column 5). Briefly, MEF-F-DDB2 cells were seeded in 6-well plates. DMSO or indicated concentrations of compounds were added to MEF-F-DDB2 cells growing in serum-free medium. MEF-F-DDB2 cells were washed once with PBS and subsequently irradiated with a Philips TUV lamp (predominantly 254 nm) at a dose rate of 0.2 W/m^2. DMSO or compounds were added to MEF-F-DDB2 cells, and then cells were harvested. The cells were lysed, and equal amounts of proteins were resolved on SDS-PAGE gel and Flag-DDB2 levels were detected using anti-DDB2 (D4C4) rabbit antibody (Cell signaling, #5416S). α-tubulin (Proteintech, #66031-1-Ig) was used as an internal loading control. (+) means that the normalized DDB2/α-tubulin ratio is higher in the compound treated sample than DMSO treated sample. (−) means that no change happens between compound treated sample with control sample.

[4] = tested on: CUL4A^high MDA-MB-468 breast cancer cells; assay: Cell killing in CUL4-high MDA-MB-468 cells (CellTiter Glo); assay type: cell-based; settings: Homo sapiens, 192 h; MDA-MB-468 cells, 8 days treatment; read-out: EC50 CUL4-High Cells (cell killing)
Description: EC50 refers to concentration of compound that induces 50% killing of CUL4A^high MDA-MB-468 cells (see Table 1, column 6). CUL4A^high MDA-MB-468 breast cancer cells were seeded in 96 well plates. After 24 hours, cells were treated with DMSO or compounds. Change fresh medium and compounds. After 8 days treatment, cell viability was examined by using CellTiter Glo kit (Promega #7570) following the manufacturer's guidelines (https://www.promega.com/-/media/files/resources/protocols/technicalbulletins/0/celltiter-glo-luminescent-cell-viability-assay protocol.pdf?rev=0d95c232094b41daa06d0c110d1d916f&sc_lang=en, hereby incorporated by reference in its entirety for all purposes). EC50 concentration was calculated by Prism 8 XY analysis nonlinear regression (curve fit-Log(inhibitor) vs response). Lower EC50 indicates high cell killing potential in CUL4^high MDA-MB-468 cells.
CUL4A^high MDA-MB-468, CUL4^low (T47D), and MCF7 breast cancer cells were seeded in 96 well plates separately. Cells were treated with DMSO, or from 0 to 20 μM compound respectively. Replace with fresh medium and compounds every 48 hours. After 8 days treatment, cell viability was examined by CellTiter Glo kit (Promega #7570). First, transfer the appropriate volume (10 ml for Cat. #G7570) of CellTiter-Glo® Buffer into the amber bottle containing CellTiter-Glo® Substrate to reconstitute the lyophilized enzyme/substrate mixture. This forms the CellTiter-Glo® Reagent. Second, add CellTiter-Glo® Reagent in an equal volume (100 μl per well for 96-well plates) to all wells. Mix contents for 2 minutes on an orbital shaker to induce cell lysis. Incubate at room temperature for 15 minutes to stabilize luminescent signal. Then record luminescence. EC50 concentration was calculated by Prism 8 XY analysis nonlinear regression (curve fit-Log(inhibitor) vs response).

With `Cc1ccc(-c2nc(C(=O)O)cc3c2[nH]c2ccccc23)cc1` [PA2] the “Solubility (DLS Assay)” value [1] was “-(insoluble)”, the IC50 [2] was 3.43 ± 1.57 µM and the “Degradation Inhibition (inhibition of UV-induced DDB2 degradation)” value (shortened to “Degradation Inhibition”) [3] was “+”.
In the case of `O=C(O)c1cc2c([nH]c3ccccc32)c(-c2ccc(F)cc2)n1` [PA3], the “Solubility (DLS Assay)” value [1] is reported as “+/−”, the IC50 [2] is reported as 1.41 ± 0.31 µM and the “Degradation Inhibition” value [3] is reported as “+”.
For `CN(c1ccc(-c2nc(C(=O)O)cc3c2[nH]c2cc(C#N)ccc23)cc1)S(=O)(=O)c1ccccc1` [PA1-9, 7-cyano-1-(4-(N-methylphenylsulfonamido)phenyl)-9H-pyrido[3,4-b]indole-3-carboxylic acid], the “Solubility (DLS Assay)” value [1] was “-(insoluble)”, the IC50 [2] was 0.085 µM and the “Degradation Inhibition” value [3] was “+”. The EC50 [4] was 7.87 µM.
In the case of `CN(c1ccc(-c2nc(C(=O)O)cc3c2[nH]c2cc(F)ccc23)c(F)c1)S(=O)(=O)c1ccccc1` [PA1-12, 1-[4-[benzenesulfonyl(methyl)amino]-2-fluoro-phenyl]-7-fluoro-9H-pyrido[3,4-b]indole-3-carboxylic acid], the “Solubility (DLS Assay)” value [1] is reported as “-(insoluble)”, the IC50 [2] is reported as 0.75 µM and the “Degradation Inhibition” value [3] is reported as “+”. For the same molecule, the EC50 [4] was 7.37 µM.
With `CN(c1ccc(-c2nc(C(=O)O)cc3c2[nH]c2cc(F)c(F)cc23)cc1)S(=O)(=O)c1ccccc1` [PA1-7, 6,7-difluoro-1-(4-(N-methylphenylsulfonamido)phenyl)-9H-pyrido[3,4-b]indole-3-carboxylic acid] the “Solubility (DLS Assay)” value [1] was “-(insoluble)”, the IC50 [2] was 0.127 µM and the EC50 [4] was 8.65 µM.
In the case of `COC(=O)c1cc2c([nH]c3cc(F)cc(C)c32)c(-c2ccc(N(C)S(=O)(=O)c3ccccc3)cc2)n1` [PA1-14 ESTER, methyl 1-[4-[benzenesulfonyl(methyl)amino]phenyl]-7-fluoro-5-methyl-9H-pyrido[3,4-b]indole-3-carboxylate], the “Solubility (DLS Assay)” value [1] is reported as “-(insoluble)”, the “AlphaLisa IC50” value [2] is reported as “Neg” and the “Degradation Inhibition” value [3] is reported as “−”.
In the case of `O=C(O)c1cc2c([nH]c3ccccc32)c(-c2cc(F)c(F)c(F)c2)n1` [PA33], the “Solubility (DLS Assay)” value [1] is reported as “-(insoluble)” and the IC50 [2] is reported as 2 ± 0.38 µM.
In the case of `CS(=O)(=O)c1ccc(-c2nc(C(=O)O)cc3c2[nH]c2ccc(F)cc23)cc1` [PA71], the “Solubility (DLS Assay)” value [1] is reported as “-(insoluble)”, the IC50 [2] is reported as 0.36 ± 0.04 µM and the “Degradation Inhibition” value [3] is reported as “−”.
In the case of `O=C(O)c1cc2c([nH]c3ccccc32)c(-c2cccc(F)c2)n1` [PA5], the “Solubility (DLS Assay)” value [1] is reported as “-(insoluble)” and the IC50 [2] is reported as 2.34 ± 0.77 µM.
With `O=C(O)c1cc2c([nH]c3cc(F)ccc32)c(-c2ccc(OCc3ccccc3)cc2)n1` [PA1-11, 1-(4-benzyloxyphenyl)-7-fluoro-9H-pyrido[3,4-b]indole-3-carboxylic acid] the “Solubility (DLS Assay)” value [1] was “-(insoluble)”, the IC50 [2] was 5.84 µM and the “Degradation Inhibition” value [3] was “−”. For the same molecule, the EC50 [4] was 9.9 µM.
For `COC(=O)c1cc2c([nH]c3cc(C#N)ccc32)c(-c2ccc(N(C)S(=O)(=O)c3ccccc3)cc2)n1` [PA1-9 ESTER, methyl 7-cyano-1-(4-(N-methylphenylsulfonamido)phenyl)-9H-pyrido[3,4-b]indole-3-carboxylate], the “Solubility (DLS Assay)” value [1] was “-(insoluble)” and the “AlphaLisa IC50” value [2] was “Neg”.
For `COc1ccc2[nH]c3c(-c4ccc(S(C)(=O)=O)cc4)nc(C(=O)O)cc3c2c1` [PA74], the “Solubility (DLS Assay)” value [1] was “-(insoluble)”, the IC50 [2] was 1.83 ± 0.09 µM and the “Degradation Inhibition” value [3] was “+”.
In the case of `NC(=O)c1cc2c([nH]c3ccccc32)c(-c2ccc([N+](=O)[O-])cc2)n1` [PA9, 1-(4-nitrophenyl)-9H-pyrido[3,4-b]indole-3-carboxamide], the “Solubility (DLS Assay)” value [1] is reported as “-(insoluble)”, the “AlphaLisa IC50” value [2] is reported as “Neg” and the “Degradation Inhibition” value [3] is reported as “+”.
With `CN1CCN(S(=O)(=O)N(C)c2ccc(-c3nc(C(=O)O)cc4c3[nH]c3cc(F)ccc34)cc2)CC1` [PA1-13A-3, 1-(4-(N,4-dimethylpiperazine-1-sulfonamido)phenyl)-7-fluoro-9H-pyrido[3,4-b]indole-3-carboxylic acid] the “Solubility (DLS Assay)” value [1] was “-(insoluble)”, the IC50 [2] was 0.45 µM and the “Degradation Inhibition” value [3] was “−”. It also gave an EC50 [4] of 7.25 µM.
For `O=C(O)c1cc2c([nH]c3cc(F)ccc32)c(-c2ccc(OCc3ccccn3)cc2)n1` [PA1-11H, 7-fluoro-1-(4-(pyridin-2-ylmethoxy)phenyl)-9H-pyrido[3,4-b]indole-3-carboxylic acid], the “Solubility (DLS Assay)” value [1] was “-(insoluble)” and the “Degradation Inhibition” value [3] was “−”.
For `N#Cc1ccc(-c2nc(C(=O)O)cc3c2[nH]c2ccccc23)cc1` [PA19], the “Solubility (DLS Assay)” value [1] was “-(insoluble)”, the IC50 [2] was 2.01 ± 0.44 µM and the “Degradation Inhibition” value [3] was “+”.
In the case of `COc1cccc(-c2nc(C(=O)O)cc3c2[nH]c2ccccc23)c1` [PA8], the “Solubility (DLS Assay)” value [1] is reported as “-(insoluble)” and the IC50 [2] is reported as 7.75 ± 1.82 µM.
For `Cc1cccc(-c2nc(C(=O)O)cc3c2[nH]c2ccccc23)c1` [PA7], the “Solubility (DLS Assay)” value [1] was “-(insoluble)” and the IC50 [2] was 10.2 ± 3.33 µM.

— patent US20250188078A1, “SMALL MOLECULE INHIBITORS OF THE CRL4 UBIQUITIN LIGASE” (Cornell University, priority 2022, published 2025)
